Test results from patent publication US9840508B2, “N-acyl-(3-substituted)-(8-methyl)-5,6-dihydro-[1,2,4]triazolo[4,3-a] pyrazines as selective NK-3 receptor antagonists, pharmaceutical composition, methods for use in NK-3 receptor-mediated disorders” (EUROSCREEN SA, priority 2013, dated 2017).

Columns and labels:
human NK-3 receptor = human NK-3 receptor (Homo sapiens (Human), UniProt P29371); test: Aequorin functional assay with human NK-3 receptor (antagonist testing); type: cell-based; conditions: CHO cells expressing human NK-3 receptor; agonist NKA at EC80 (3 nM); read-out: Functional assay: Aequorin assay with human NK-3 receptor hNK-3 - AEQ (antagonist IC50)
Method: Aequorin Assay with Human NK-3 Receptor
Changes in intracellular calcium levels are a recognized indicator of G protein-coupled receptor activity. The efficacy of compounds of the invention to inhibit NKA-mediated NK-3 receptor activation was assessed by an in vitro Aequorin functional assay. Chinese Hamster Ovary recombinant cells expressing the human NK-3 receptor and a construct that encodes the photoproteinapoaequorin were used for this assay. In the presence of the cofactor coelenterazine, apoaequorin emits a measurable luminescence that is proportional to the amount of intracellular (cytoplasmic) free calcium.
The antagonist activity of compounds of the invention is measured following pre-incubation (3 minutes) of the compound (at various concentrations) with the cells, followed by addition of the reference agonist (NKA) at a final concentration equivalent to the EC80 (3 nM) and recording of emitted light (FDSS 6000 Hamamatsu) over the subsequent 90-second period. The intensity of the emitted light is integrated using the reader software. Compound antagonist activity is measured based on the concentration-dependent inhibition of the luminescence response to the addition of Neurokinin A.
The IC50 values shown in Table 2 indicate that compounds of the invention are potent NK-3 antagonist compounds.

human NK-1 receptor = human NK-1 receptor (Homo sapiens (Human), UniProt P25103); test: Selectivity binding assay, human NK-1 ([3H] substance P); conditions: CHO cell membranes; 2 nM [3H] substance P; read-out: hNK-1 (Ki)
Method: (§1) Selectivity of the compounds of the invention was determined over the other human NK receptors, namely NK-1 and NK-2 receptors.
The affinity of compounds of the invention for the NK-1 receptor was evaluated in CHO recombinant cells which express the human NK-1 receptor. Membrane suspensions were prepared from these cells. The following radioligand: [^3H] substance P (PerkinElmer Cat#NET111520) was used in this assay. Binding assays were performed in a 50 mM Tris/5 mM MnCl2/150 mM NaCl/0.1% BSA at pH 7.4. Binding assays consisted of 25 μl of membrane suspension (approximately 5 μg of protein/well in a 96 well plate), 50 μl of compound or reference ligand (Substance P) at increasing concentrations (diluted in assay buffer) and 2 nM [^3H] substance P. The plate was incubated 60 min at 25° C. in a water bath and then filtered over GF/C filters (Perkin Elmer, 6005174, presoaked in 0.5% PEI for 2 h at room temperature) with a Filtration unit (Perkin Elmer). The radioactivity retained on the filters was measured by using the TopCount-NXT reader (Packard). Competition curves were obtained for compounds of the invention and the concentrations of compounds which displaced 50% of bound radioligand (IC50) were determined and then apparent inhibition constant Ki values were calculated by the following equation: Ki=IC50/(1+[L]/KD) where [L] is the concentration of free radioligand and KD is its dissociation constant at the receptor, derived from saturation binding experiments (Cheng and Prusoff, 1973).

human NK-2 receptor = human NK-2 receptor (Homo sapiens (Human), UniProt P21452); test: Selectivity binding assay, human NK-2 ([125I]-Neurokinin A); conditions: CHO cell membranes; 0.1 nM [125I]-Neurokinin A; read-out: hNK-2 (Ki)
Method: as §1
The affinity of compounds of the invention for the NK-2 receptor was evaluated in CHO recombinant cells which express the human NK-2 receptor. Membrane suspensions were prepared from these cells. The following radioligand [^125I]-Neurokinin A (PerkinElmer Cat#NEX252) was used in this assay. Binding assays were performed in a 25 mM HEPES/1 mM CaCl2/5 mM MgCl2/0.5% BSA/10 μg/ml saponin, at pH 7.4. Binding assays consisted of 25 μl of membrane suspension (approximately 3.75 μg of protein/well in a 96 well plate), 50 μl of compound or reference ligand (Neurokinin A) at increasing concentrations (diluted in assay buffer) and 0.1 nM [^125I]-Neurokinin A. The plate was incubated 60 min at 25° C. in a water bath and then filtered over GF/C filters (Perkin Elmer, 6005174, presoaked in assay buffer without saponine for 2 h at room temperature) with a Filtration unit (Perkin Elmer). The radioactivity retained on the filters was measured by using the TopCount-NXT reader (Packard). Competition curves were obtained for compounds of the invention and the concentrations of compounds which displaced 50% of bound radioligand (IC50) were determined and then apparent inhibition constant Ki values were calculated by the following equation: Ki=IC50/(1+[L]/KD) where [L] is the concentration of free radioligand and KD is its dissociation constant at the receptor, derived from saturation binding experiments (Cheng and Prusoff, 1973).

plasma protein = test: Determination of plasma protein binding (rapid equilibrium dialysis); type: in vitro ADME; conditions: 4 hours at 37° C.
Source text: Determination of Plasma Protein Binding
The pharmacokinetic and pharmacodynamic properties of chemicals/drugs are largely a function of the reversible binding of chemicals to plasma or serum proteins. Generally, only the unbound or “free fraction” of a drug is available for diffusion or transport across cell membranes, and for interaction with a pharmacological/toxicological target. Consequently, the extent of the plasma protein binding (PPB) of a compound influences its action as well as its distribution and elimination.
The determination of plasma protein binding (PPB) of a compound is enabled by equilibrium dialysis, an accepted and standard method for reliable estimation of the non-bound drug fraction in plasma. RED (Rapid Equilibrium Dialysis) device insert is made of two side-by-side chambers separated by an O-ring-sealed vertical cylinder of dialysis membrane (MWCO˜8,000). Plasma containing drug (at 5 μM or blood concentrations otherwise corresponding to efficacious doses, if known) is added to one chamber while buffer is added to the second. After 4 hours incubation at 37° C. under shaking, an aliquot is removed from each chamber and analyzed by a LC-MS/MS procedure enables the determination of both free and bound drug.
The percentages provided in Table 4 represent for the compounds of the invention the bound drug fraction to the plasma protein. The “free fraction” may be calculated as 100%−% rPPB (i.e. the complementary percentage of that disclosed in Table 4, corresponding to the drug concentration that is unbound and therefore available to engage biological target and elicit pharmacological activity).

Chain of human NK-1 receptor (P25103 whole entry): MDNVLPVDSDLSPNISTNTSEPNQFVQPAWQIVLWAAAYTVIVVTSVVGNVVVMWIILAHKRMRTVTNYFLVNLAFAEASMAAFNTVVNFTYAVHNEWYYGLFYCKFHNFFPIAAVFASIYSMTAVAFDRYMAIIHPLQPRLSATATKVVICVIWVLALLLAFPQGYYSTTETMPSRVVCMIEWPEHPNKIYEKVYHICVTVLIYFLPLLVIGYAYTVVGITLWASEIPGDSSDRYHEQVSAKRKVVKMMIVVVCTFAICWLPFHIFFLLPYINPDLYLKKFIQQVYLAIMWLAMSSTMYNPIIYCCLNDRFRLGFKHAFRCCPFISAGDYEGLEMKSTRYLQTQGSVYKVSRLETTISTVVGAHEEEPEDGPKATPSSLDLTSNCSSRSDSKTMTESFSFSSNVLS
Chain of human NK-2 receptor (P21452 whole entry): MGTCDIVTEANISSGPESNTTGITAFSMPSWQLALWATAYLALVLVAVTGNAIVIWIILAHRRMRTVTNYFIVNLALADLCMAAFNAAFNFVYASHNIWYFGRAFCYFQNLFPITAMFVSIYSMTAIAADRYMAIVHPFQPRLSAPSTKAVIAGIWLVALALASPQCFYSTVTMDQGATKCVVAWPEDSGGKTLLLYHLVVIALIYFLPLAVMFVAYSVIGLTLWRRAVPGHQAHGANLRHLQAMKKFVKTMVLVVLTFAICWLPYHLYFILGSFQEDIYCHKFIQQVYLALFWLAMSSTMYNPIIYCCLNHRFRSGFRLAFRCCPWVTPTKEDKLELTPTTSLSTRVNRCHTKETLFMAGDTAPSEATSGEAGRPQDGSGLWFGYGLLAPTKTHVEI
Chain of human NK-3 receptor (P29371 whole entry): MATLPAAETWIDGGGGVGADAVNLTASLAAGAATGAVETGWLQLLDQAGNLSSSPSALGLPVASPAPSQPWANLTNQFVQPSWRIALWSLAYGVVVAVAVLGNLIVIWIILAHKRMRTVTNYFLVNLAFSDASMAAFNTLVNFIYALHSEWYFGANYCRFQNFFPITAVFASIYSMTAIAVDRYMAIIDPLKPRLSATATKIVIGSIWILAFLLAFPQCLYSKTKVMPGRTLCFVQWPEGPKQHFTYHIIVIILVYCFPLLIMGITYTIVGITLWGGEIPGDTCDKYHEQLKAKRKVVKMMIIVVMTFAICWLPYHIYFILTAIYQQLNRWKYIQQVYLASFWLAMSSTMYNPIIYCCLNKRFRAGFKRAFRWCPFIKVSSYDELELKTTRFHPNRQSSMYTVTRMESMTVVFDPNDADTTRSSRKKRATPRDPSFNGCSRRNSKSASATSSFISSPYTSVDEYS

IC50 (human NK-3 receptor) [µM] | Ki (human NK-1 receptor) [µM] | Ki (human NK-2 receptor) [µM] | Exposure (% rPPB), bound drug fraction to the plasma protein (plasma protein) [%] | Structure (SMILES)
0.06 | > 30 | 52 | 28 | Cc1ccc(-c2nnc3n2CCN(C(=O)c2ccc(F)cc2)[C@@H]3C)o1 [Compound 1, (R)-(4-fluorophenyl)(8-methyl-3-(5-methylfuran-2-yl)-5,6-dihydro-[1,2,4]triazolo[4,3-a]pyrazin-7(8H)-yl)methanone]
0.02 | > 30 | 6.6 | 50 | C[C@@H]1c2nnc(-c3csc(C(F)(F)F)n3)n2CCN1C(=O)c1ccc(F)cc1 [Compound 3, (R)-(4-fluorophenyl)(8-methyl-3-(2-(trifluoromethyl)thiazol-4-yl)-5,6-dihydro-[1,2,4]triazolo[4,3-a]pyrazin-7(8H)-yl)methanone]
